The source of these data is patent US20240228487A1, “FUSED HETEROCYCLIC COMPOUND AND APPLICATION THEREOF, PHARMACEUTICAL COMPOSITIONS CONTAINING SAME AND APPLICATION THEREOF” (ZHEJIANG UNIVERSITY, priority 2021, published 2024).

Structures can show the parent of a compound that is named as a salt.

For the assay, the target named is T1, human TRPM2 channels (Homo sapiens, UniProt O94759).
T1 construct: expressed in transfected cells
T1 sequence (O94759 whole entry): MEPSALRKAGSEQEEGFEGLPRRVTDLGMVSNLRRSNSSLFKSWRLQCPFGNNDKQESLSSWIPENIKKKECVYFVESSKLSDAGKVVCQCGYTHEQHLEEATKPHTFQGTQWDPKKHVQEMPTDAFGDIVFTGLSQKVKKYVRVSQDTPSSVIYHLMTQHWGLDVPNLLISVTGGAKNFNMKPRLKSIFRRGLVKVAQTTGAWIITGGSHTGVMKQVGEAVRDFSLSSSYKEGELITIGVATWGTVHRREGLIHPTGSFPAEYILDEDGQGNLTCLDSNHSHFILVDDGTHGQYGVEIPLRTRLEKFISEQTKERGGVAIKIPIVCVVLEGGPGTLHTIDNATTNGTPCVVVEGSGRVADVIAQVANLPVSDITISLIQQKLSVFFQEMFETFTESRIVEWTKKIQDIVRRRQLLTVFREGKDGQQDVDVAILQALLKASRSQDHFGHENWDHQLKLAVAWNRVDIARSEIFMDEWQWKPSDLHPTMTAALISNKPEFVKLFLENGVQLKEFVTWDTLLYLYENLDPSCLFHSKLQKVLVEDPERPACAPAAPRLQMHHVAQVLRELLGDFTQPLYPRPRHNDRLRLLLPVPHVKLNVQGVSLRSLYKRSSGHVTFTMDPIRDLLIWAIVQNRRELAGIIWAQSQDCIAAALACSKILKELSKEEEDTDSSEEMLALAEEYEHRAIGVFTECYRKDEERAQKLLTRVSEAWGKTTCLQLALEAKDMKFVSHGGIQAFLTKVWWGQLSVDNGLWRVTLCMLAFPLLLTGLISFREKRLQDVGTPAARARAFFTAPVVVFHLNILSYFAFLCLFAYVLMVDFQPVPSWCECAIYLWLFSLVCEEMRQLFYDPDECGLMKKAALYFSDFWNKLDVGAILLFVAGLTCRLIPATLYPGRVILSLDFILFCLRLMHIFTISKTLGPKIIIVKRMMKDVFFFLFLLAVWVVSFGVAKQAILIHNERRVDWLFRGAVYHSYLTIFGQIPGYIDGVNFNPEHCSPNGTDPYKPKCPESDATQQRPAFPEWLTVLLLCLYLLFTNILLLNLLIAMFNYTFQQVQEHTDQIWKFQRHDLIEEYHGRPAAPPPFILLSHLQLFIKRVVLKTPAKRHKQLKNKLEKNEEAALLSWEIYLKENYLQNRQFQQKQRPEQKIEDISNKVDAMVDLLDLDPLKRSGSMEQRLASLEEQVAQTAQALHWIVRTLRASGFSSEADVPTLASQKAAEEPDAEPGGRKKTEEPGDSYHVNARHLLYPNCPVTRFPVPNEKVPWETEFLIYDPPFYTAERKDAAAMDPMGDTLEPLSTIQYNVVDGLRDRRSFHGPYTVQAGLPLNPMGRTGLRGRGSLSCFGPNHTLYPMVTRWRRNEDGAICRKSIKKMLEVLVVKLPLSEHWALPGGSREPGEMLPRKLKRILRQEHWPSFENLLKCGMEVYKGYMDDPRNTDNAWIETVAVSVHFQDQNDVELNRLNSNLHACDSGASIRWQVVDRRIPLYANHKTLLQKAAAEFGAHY
Description: whole cell patch clamp, inhibition of TRPM2 channel current. It is filed as cell-based. The following applies: HEK293 cells stably expressing human TRPM2, 500 μM ADPR. How it is done: The fused heterocyclic compound of the present invention has an inhibitory effect on the TRPM2 channel, and its pharmacological activity is measured using whole cell patch clamp technology, the corresponding steps are as follows: Incubating HEK293 cells stably expressing human TRPM2 channels in DMEM/F-12 medium containing 10% bovine serum, 50 units/mL of penicillin and […] of streptomycin under the condition of 5% CO2 and 37° C. The cells before testing are stored in the extracellular fluid (147 mM NaCl, 2 mM KCl, 1 mM MgCl2, 2 mM CaCl2, 10 mM HEPES, 13 mM glucose, pH 7.4). The electrode is filled with the electrode internal solution (147 mM NaCl, 0.05 mM EGTA, 1 mM MgCl2, 10 mM HEPES, 0.5 mM ADPR, pH=7.3), and the resistance is maintained at 3-5 M Ω. Administering ADPR into cells through electrodes, and detecting the ADPR concentration used to activate TRPM2 as 500 μM, when detecting a stable current, perfusing the corresponding concentration of fused heterocyclic compound II-1 into the extracellular fluid for at least 60 seconds. record the change in current magnitude using voltage ramp mode, changing the voltage from −100 mV to+100 mV within 500 ms, with a normal clamp voltage of 0 mV and a TRPM every 5 seconds; finally, replacing the extracellular fluid with a solution with pH=5.0 to block the TRPM2 current, the electrophysiological current test results obtained are shown in Table 1, and the electrophysiological current graph obtained is shown in FIG. 1. Similarly, administering corresponding concentrations of other fused heterocyclic compounds (II-2˜II-54, III-1˜III-11) into the extracellular fluid, taking electrophysiological tests using the same method, the results are shown in Table 1. The electrophysiological representative current graphs of some fused heterocyclic compounds (II-9, II-19, and II-36) inhibiting TRPM2 channel current are shown in FIG. 1.
On the technique in general: In patch-clamp work, channel activity is measured electrically.
What is called IC50 is the midpoint of a concentration-inhibition curve. Read a high IC50 as weaker potency. Consider `O=C(c1ccccn1)c1cc(C(=O)N2CCNCC2)cc2cccn12` [II-40, hydrochloride], for which the IC50 was in the range of 10 to 20 µM.
In turn, `O=C(c1ccccn1)c1cc(C(=O)N2CCCC2)cc2cccn12` [II-35] showed an IC50 of 10 to 20 µM.
The figure for `CCOC(=O)c1cc(C(=O)c2cccc(Cl)c2)n2cccc2c1` [II-9, 5-(3-chlorobenzoyl) indolizine-7-ethyl carboxylate] is 1 to 10 µM; for `COC(=O)c1cc(C(=O)c2ccccc2F)n2cccc2c1` [II-8, 5-(2-Fluorobenzoyl) indolizine-7-methyl carboxylate] it is 1 to 10 µM; for `CCOC(=O)c1cc(C(=O)c2cccc(OC)c2)n2cccc2c1` [II-12, Ethyl 5-(3-methoxybenzoyl) indolizine-7-carboxylate] it is 10 to 20 µM.
The molecule `CCN(C)C(=O)c1cc(C(=O)c2ccccc2)n2cccc2c1` [II-24, 5-Benzoyl-N-ethyl-N-methylindolizine-7-formamide] displayed a concentration for half-maximal inhibition (IC50) of 1 to 10 µM.
`CCN(CC)C(=O)c1cc(C(=O)c2ccccn2)n2cccc2c1` [II-38, N,N-Diethyl-5-pyridylimide-7-formamide hydrochloride] came in with an IC50 of 20 to 50 µM.
`CN(C)C(=O)c1cc(C(=O)c2ccccc2)n2cccc2c1` [II-22, 5-benzoyl-N, N-dimethylindolizine-7-formamide] showed a concentration for half-maximal inhibition (IC50) of 10 to 20 µM.
As for `CCN(CC)C(=O)c1cc(C(O)c2ccccc2)n2cccc2c1` (centres unmarked) [II-45, N,N-diethyl-5-(hydroxy(phenyl)methyl) indolizine-7-formamide], the IC50 was in the range of 10 to 20 µM.
As for `O=C(c1ccccc1)c1cc(C(=O)N2CCCCC2)cc2cccn12` [II-28, (5-benzimide 7-yl) (piperidin-1-yl) ketone], the IC50 lay in the range of 10 to 20 µM.
Take `CCOC(=O)c1cc(C(=O)c2cccc(C)c2)n2cccc2c1` [II-11, 5-(3-methylbenzoyl) indolizine-7-Ethyl carboxylate]: the IC50 is 1 to 10 µM.
Turning to `CCNC(=O)c1cc(C(O)c2ccccc2)n2cccc2c1` (centres unmarked) [II-43, N-ethyl-5-(hydroxy(phenyl)methyl) indolizine-7-formamide], the 50% inhibitory concentration (IC50) fell in the range of 10 to 20 µM.
The molecule `CCCOC(c1ccccc1)c1cc(C(=O)OCC)cc2cccn12` (centres unmarked) [II-54, 5-(Phenyl (Propyloxy) Methylindolizine-7-ethyl carboxylate] displayed an IC50 of 10 to 20 µM.
In turn, `O=C(c1ccccc1)c1cc(C(=O)N2CCCC2)cc2nccn12` [III-9] had an IC50 of 10 to 20 µM.
Molecule `COC(=O)c1cc(C(=O)c2ccc(Cl)cc2)n2ccnc2c1` [III-2, 5-(4-chlorobenzoyl) imidazolo [1,2-a]pyridine-7-methyl carboxylate] came in with a concentration for half-maximal inhibition (IC50) of 10 to 20 µM.
For `COC(=O)c1cc(C(=O)c2ccco2)n2cccc2c1` [II-13, 5-(furan-2-carbonyl) indolizine-7-methyl carboxylate], the IC50 was 1 to 10 µM.
`CCCCCCCC(=O)OC(c1ccccc1)c1cc(C(=O)N(CC)CC)cc2cccn12` (centres unmarked) [II-52] returned an IC50 of 20 to 50 µM.
The molecule `O=C(c1ccccc1F)c1cc(C(=O)N2CCCC2)cc2cccn12` [II-33, (5-(2-fluorobenzoyl)indolizine-7-yl) (pyrrolidine-1-yl) ketone] registered an IC50 of 10 to 20 µM.
With `CCN(CC)C(=O)c1cc(C(=O)c2ccccn2)n2cccc2c1` [II-34, N, N-Diethyl-5-pyridylimide-7-formamide], the concentration for half-maximal inhibition (IC50) was 1 to 10 µM.
In the case of `O=C(c1ccccc1)c1cc(C(=O)N2CCC2)cc2cccn12` [II-26, azetidine-1-yl (5-benzoimide 7-yl) ketone], the IC50 lay in the range of 1 to 10 µM.
For the molecule `CCN(CC)C(=O)c1cc(C(=O)c2ccccc2F)n2cccc2c1` [II-32, N, N-Diethyl-5-(2-fluorobenzoyl) indolizine-7-formamide], the IC50 is 10 to 20 µM.
With `CCOC(=O)c1cc(C(=O)c2cccs2)n2cccc2c1` [II-16, 5-(thiophen-2-carbonyl) indolizine-7-ethyl carboxylate], the IC50 was 1 to 10 µM.
In turn, `COC(=O)c1cc(C(=O)c2ccccn2)n2cccc2c1` [II-17, 5-methylpyridinimide-7-methyl carboxylate] gave a half-inhibitory concentration (IC50) of 1 to 10 µM.
